Results reported in patent US6284910A, “Farnesyl pyrophosphate analogs” (University of Kentucky Research Foundation, priority 1999, dated 2001).
Entries after “also recorded” stand apart in the source; their conditions may differ.

Molecular target: FTase (Rattus norvegicus, UniProt Q02293+Q04631)
Assay: FTase-catalyzed transfer of labeled FPP analogs to p21^H-ras (substrate assay)
Format: biochemical
Design: H-Ras is only the protein substrate
Conditions: for transfer to p21^H-ras by FTase, in words: in vitro
Description: FIG. 4. Transfer of Anilinogeranyl from [^3 H]AGPP to p21^Ha-ras by Farnesyltransferase. (A) Each reaction contained 1 μM [^3 H]AGPP (37,400 dpm/pmol) and 10 ng of recombinant FTase in the absence (triangles) or presence (circles) of 5 μM p21^Ha-ras Duplicate samples were incubated for the indicated times at 37° C., and ethanol-HCl precipitated radioactivity was measures as described under "Experimental Procedures". […] The gel was treated with Amplify solution (Amersham), dried, and exposed to Kodak X-OMAT AR film for 2 days at -70° C. The migration of molecular weight markers placed in a adjacent lane is shown. (B) The AGPP substrate saturation curve for FTase was determined by varying the amount of [^3 H]AGPP in the standard reaction described above. Assays were carried out in duplicate for 30 min at 37° C., and the ethanol-HCl precipitable radioactivity measured. The data is representative of three independent experiments.
FIG. 5. […] Farnesyltransferase (10 ng) was incubated in a final volume of 25 μl in the presence of 1.0 μM [^3 H]AGPP or [^3 H]FPP and 5 μM wild-type p21^Ha-ras. After incubation for 30 min at 37° C., the amount of [^3 H]prenyl transferred to p21^Ha-ras was determined as described under "Experimental Procedures". Each value is the average of duplicate incubations and is representative of five separate experiments.
Assay for Farnesyltransferase Activity--Farnesyltransferase activity was assayed by measuring the amount of [^3 H]farnesyl or [^3 H]anilinogeranyl transferred from [^3 H]FPP or [^3 H]AGPP to recombinant p21^H-ras, as described previously (31). Unless otherwise stated, each reaction mixture contained the following components in a final volume of 25 μl: 50 mM Tris (pH 7.4), 20 mM KCl, 0.2% octyl β-glucopyranoside, 1 mM dithiothreitol, 10-20 ng recombinant FTase, 5 μM p21^Ha-ras, 3 mM MgCl2, 50 μM ZnCl2, and 0.6 μM [^3 H]FPP (33,000 dpm/pmol; American Radiochemical Co.) or 0.1-5 μM [^3 H]AGPP (37,400 dpm/pmol). Following incubation for the indicated times at 37° C., the amount of [^3 H]prenyl transferred was measured by ethanol-HCl precipitation and filtration on glass fiber filters with modification as previously described (19). A blank value was determined in parallel incubation mixtures containing no enzyme. This blank value was subtracted from each reaction before calculating pmol [^3 H]prenyl transferred.
The observed inhibition kinetics could be a manifestation of the ability of AGPP to act as an alternative substrate for FTase. To evaluate the potential of AGPP to serve as a substrate of FTase, [^3 H]-AGPP was prepared by a similar route as described above, incorporating tritium with a specific activity of 17 Ci/mmol (synthesis to be reported elsewhere). […] The incorporated radioactivity was detected as a band of the expected molecular weight of farnesylated p21^H-ras on SDS-polyacrylamide gels (FIG. 4A, inset). […] The concentration of [^3 H]AGPP that gave half-maximal reaction velocity was approximately 0.5 μM (FIG. 4B).
FIG. 5 depicts transfer of unnatural anilinogeranyl lipid from [^3 H]AGPP and transfer of farnesyl lipid from [^3 H]FPP to H-Ras by FTase. Farnesyltransferase (10 ng) was incubated in a final volume of 25 μl in the presence of 1.0 μM [^3 H]AGPP or [^3 H]FPP and 5 μM wild-type H-Ras. After incubation for 30 min. at 37° C., the amount of [^3 H]prenyl transferred to H-Ras was determined by ethanol-HCl precipitation and scintillation counting. Each value is the average of duplicate incubations and is representative of five separate experiments.

## C/C(=C\COP(=O)(O)OP(=O)(O)O)CC/C=C(\C)CNc1ccccc1 [AGPP, (E,E)-8-Aniline-3,7-dimethyl-2,6-octadiene pyrophosphate]
37° C.
  transfer to p21^H-ras by FTase, in words: transferred efficiently
37° C., listed as [^3 H]-AGPP
  transfer to p21^H-ras by FTase, in words: kinetics of transfer are identical to those of FPP
37° C., listed as [^3 H]AGPP
  transfer to p21^H-ras by FTase, in words: time dependent fashion; also recorded: transferred appropriately to p21^H-Ras by FTase
Recombinant p21^H-ras with CVLS removed
  transfer to p21^H-ras lacking the CVLS motif: eliminated the incorporation of tritium into the protein
Transfer to p21^H-ras, 37° C., 30 min
  concentration that gave half-maximal reaction velocity: approximately 0.5 μM
